The text below walks through data of US20230265151A1, “GIP/GLP1 CO-AGONIST COMPOUNDS” (priority 2020, published 2023).

Broadly, the Emax is the size of the effect at its maximum, as opposed to the concentration needed. What is called EC50 is the concentration that produces a half-maximal response.

What all share (format): cell-based
The target in one assay is T1, hGIPR (Homo sapiens, UniProt P48546).
T1 construct: expressed in transfected cells
T1 sequence (P48546 22-466): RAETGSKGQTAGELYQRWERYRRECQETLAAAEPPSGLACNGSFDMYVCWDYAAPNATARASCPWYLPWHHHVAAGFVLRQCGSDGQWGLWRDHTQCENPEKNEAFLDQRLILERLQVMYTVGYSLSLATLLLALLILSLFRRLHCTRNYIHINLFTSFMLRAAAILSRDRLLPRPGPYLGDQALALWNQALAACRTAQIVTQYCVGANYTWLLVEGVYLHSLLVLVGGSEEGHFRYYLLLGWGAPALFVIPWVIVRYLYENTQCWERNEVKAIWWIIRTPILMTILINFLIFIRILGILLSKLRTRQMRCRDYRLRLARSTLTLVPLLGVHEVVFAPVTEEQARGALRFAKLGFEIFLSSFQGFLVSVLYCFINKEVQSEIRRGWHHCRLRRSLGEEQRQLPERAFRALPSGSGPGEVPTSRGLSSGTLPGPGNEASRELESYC
Description: Functional cAMP formation (HTRF) in HEK-293 clonal cells expressing hGIPR, 0.1% bovine casein, without or with 1.0% human serum albumin. The settings on record: for Emax: read-out: hGIPR Emax, % ± SEM; for EC50: cAMP, 0.1% bovine casein (no human serum albumin), geometric mean, read-out: hGIPR EC50, nM (SEM, n). The procedure, abridged: (§1)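 Cells were stimulated with peptide for 30 min at 37° C, then intracellular cAMP was measured by competitive HTRF (665/620 nm ratio) and converted to nM using a cAMP standard curve. Relative EC50 and Emax came from four-parameter logistic fits of percent maximal response against peptide concentration.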

A further assay concerns the target hGLP-1R (Homo sapiens, UniProt P43220). The assay is described as follows: Functional cAMP formation (HTRF) in HEK-293 clonal cells expressing hGLP-1R, 0.1% bovine casein, without or with 1.0% human serum albumin. More on the design: expressed in transfected cells. The settings on record: for Emax: percent of maximal response to GLP-1(7-36)NH2, read-out: hGLP-1R Emax, % ± SEM; for EC50: cAMP, read-out: hGLP-1R EC50, nM (SEM, n). The gist of the method: as §1
On the technique in general: Cyclic AMP is a second messenger, typically raised through Gs and lowered through Gi signalling.

The target of a further assay is T2, hGCGR (Homo sapiens, UniProt P47871).
T2 construct: expressed in transfected cells
T2 sequence (P47871 26-477): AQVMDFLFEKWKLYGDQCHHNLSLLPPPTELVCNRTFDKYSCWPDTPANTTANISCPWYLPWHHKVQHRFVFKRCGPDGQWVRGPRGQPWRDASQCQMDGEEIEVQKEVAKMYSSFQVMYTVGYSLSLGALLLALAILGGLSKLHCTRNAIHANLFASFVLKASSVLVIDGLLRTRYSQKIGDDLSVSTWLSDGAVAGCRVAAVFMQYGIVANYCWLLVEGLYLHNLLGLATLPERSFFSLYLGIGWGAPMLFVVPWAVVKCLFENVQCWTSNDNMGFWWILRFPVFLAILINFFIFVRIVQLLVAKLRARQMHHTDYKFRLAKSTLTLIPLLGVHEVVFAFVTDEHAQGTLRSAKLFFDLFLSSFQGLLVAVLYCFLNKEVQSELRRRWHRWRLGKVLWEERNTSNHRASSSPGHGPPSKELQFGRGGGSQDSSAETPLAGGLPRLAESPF
Description: Functional cAMP formation (HTRF) in HEK-293 clonal cells expressing hGCGR, 0.1% bovine casein, without or with 1.0% human serum albumin. To be noted: read-out: hGCGR EC50, nM (SEM, n). The gist of the method:
as §1

Setting [1] is: HEK293, cAMP, 37° C., 0.1% bovine casein, percent of maximal response to GIP(1-42)NH2, arithmetic mean.
[2] abbreviates: 37° C., 0.1% bovine casein (no human serum albumin), geometric mean.
Where [3] appears, read: cAMP, 37° C., 0.1% bovine casein (no human serum albumin), geometric mean.
Where [4] appears, read: HEK293, cAMP, 37° C., 0.1% bovine casein and 1.0% human serum albumin, percent of maximal response to GIP(1-42)NH2.
Where [5] appears, read: 37° C., 0.1% bovine casein and 1.0% human serum albumin, geometric mean (SEM, n).
Setting [6] is: cAMP, 37° C., 0.1% bovine casein and 1.0% human serum albumin, geometric mean (SEM, n).

Where two headings read alike, the source gives them in different places. *1 amine or outer side, *2 acyl side, *3 side chain or, on linkers, in order; H or OH if unused. Where a SMILES comes first, the peptide text is derived from it. Side-chain parts run from the residue outwards. [ ]: non-standard residue; d: D form. The star is where a group is joined. αMePhe(2-F) = C[C@](N)(Cc1ccccc1F)C(=O)O; γGlu = O=C(O)[C@H](CCC(=O)[*:2])N[*:1]; C14 diacid = O=C(O)CCCCCCCCCCCCC(=O)*; αMeY = C[C@](N)(Cc1ccc(O)cc1)C(=O)O; αMeL = CC(C)C[C@](C)(N)C(=O)O; Orn = NCCC[C@H](N)C(=O)O; AEEA = NCCOCCOCC(=O)O; Aib = CC(C)(N)C(=O)O Bounds are passed on as bounds.

hGLP-1R, sequence (P43220 24-463): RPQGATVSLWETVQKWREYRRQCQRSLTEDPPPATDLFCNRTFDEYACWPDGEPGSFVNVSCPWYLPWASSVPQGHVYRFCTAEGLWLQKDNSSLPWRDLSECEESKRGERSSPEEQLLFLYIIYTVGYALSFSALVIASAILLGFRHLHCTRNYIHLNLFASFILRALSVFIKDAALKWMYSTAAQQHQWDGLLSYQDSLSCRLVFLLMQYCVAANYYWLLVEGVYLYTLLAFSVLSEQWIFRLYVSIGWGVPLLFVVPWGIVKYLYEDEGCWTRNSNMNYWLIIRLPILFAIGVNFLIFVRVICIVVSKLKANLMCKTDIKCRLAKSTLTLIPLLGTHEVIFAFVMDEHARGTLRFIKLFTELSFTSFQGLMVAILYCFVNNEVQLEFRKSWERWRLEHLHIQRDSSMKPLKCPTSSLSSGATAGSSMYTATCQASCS

On to `CC[C@H](C)[C@H](NC(=O)[C@H](CCCN)NC(=O)[C@H](CC(=O)O)NC(=O)[C@H](CC(C)C)NC(=O)[C@](C)(CC(C)C)NC(=O)[C@@H](NC(=O)C(C)(C)NC(=O)[C@H](Cc1ccc(O)cc1)NC(=O)[C@H](CC(=O)O)NC(=O)[C@H](CO)NC(=O)[C@@H](NC(=O)[C@](C)(Cc1ccccc1F)NC(=O)[C@@H](NC(=O)CNC(=O)[C@H](CCC(=O)O)NC(=O)C(C)(C)NC(=O)[C@@H](N)Cc1ccc(O)cc1)[C@@H](C)O)[C@@H](C)O)[C@@H](C)CC)C(=O)N[C@@H](C)C(=O)N[C@@H](CCC(N)=O)C(=O)NC(C)(C)C(=O)N[C@@H](CCCCNC(=O)COCCOCCNC(=O)CC[C@H](NC(=O)CCCCCCCCCCCCC(=O)O)C(=O)O)C(=O)N[C@@H](Cc1ccccc1)C(=O)N[C@H](C(=O)N[C@H](CCC(=O)O)C(=O)N[C@@](C)(Cc1ccc(O)cc1)C(=O)N[C@@H](CC(C)C)C(=O)N[C@H](C(=O)N[C@@H](CCCCNC(=O)COCCOCCNC(=O)CC[C@H](NC(=O)CCCCCCCCCCCCC(=O)O)C(=O)O)C(=O)NCC(=O)NCC(=O)N1CCC[C@H]1C(=O)N[C@@H](CO)C(=O)N[C@@H](CO)C(=O)NCC(=O)N[C@@H](C)C(=O)N1CCC[C@H]1C(=O)N1CCC[C@H]1C(=O)N1CCC[C@H]1C(=O)N[C@@H](CO)C(N)=O)[C@@H](C)CC)[C@@H](C)CC` [Example 370] (H-Y[Aib]EGT[αMePhe(2-F)]TSDY[Aib]I[αMeL]LD[Orn]IAQ[Aib]K([AEEA-γGlu-C14 diacid])FI[dE][αMeY]LIK([AEEA-γGlu-C14 diacid])GGPSSGAPPPS-NH2), for which the Emax at hGIPR (setting [1]) worked out at 105%; on hGLP-1R (HEK293, cAMP, 37° C., 0.1% bovine casein, arithmetic mean), 112%. Also, the values for the 50% effective concentration (EC50) at hGIPR (37° C.), on hGLP-1R (setting [2]) and on hGCGR (setting [3]) were 0.0282 nM, 0.402 nM and more than 9950 nM, respectively.

On to `CC[C@H](C)[C@H](NC(=O)[C@H](CC(C)C)NC(=O)[C@](C)(Cc1ccc(O)cc1)NC(=O)[C@H](CCCCNC(=O)COCCOCCNC(=O)COCCOCCNC(=O)CC[C@H](NC(=O)CCCCCCCCCCCCC(=O)O)C(=O)O)NC(=O)[C@@H](NC(=O)[C@H](Cc1ccccc1)NC(=O)[C@H](CCC(=O)O)NC(=O)C(C)(C)NC(=O)[C@H](CCC(N)=O)NC(=O)[C@H](C)NC(=O)[C@H](CCC(N)=O)NC(=O)[C@H](CCCN)NC(=O)[C@H](CC(=O)O)NC(=O)[C@H](CC(C)C)NC(=O)[C@](C)(CC(C)C)NC(=O)[C@@H](NC(=O)C(C)(C)NC(=O)[C@H](Cc1ccc(O)cc1)NC(=O)[C@H](CC(=O)O)NC(=O)[C@H](CO)NC(=O)[C@@H](NC(=O)[C@](C)(Cc1ccccc1F)NC(=O)[C@@H](NC(=O)CNC(=O)[C@H](CCC(=O)O)NC(=O)C(C)(C)NC(=O)[C@@H](N)Cc1ccc(O)cc1)[C@@H](C)O)[C@@H](C)O)[C@@H](C)CC)[C@@H](C)CC)C(=O)N[C@@H](CCCCNC(=O)COCCOCCNC(=O)COCCOCCNC(=O)CC[C@H](NC(=O)CCCCCCCCCCCCC(=O)O)C(=O)O)C(=O)NCC(=O)NCC(=O)N1CCC[C@H]1C(=O)N[C@@H](CO)C(=O)N[C@@H](CO)C(=O)NCC(=O)N[C@@H](C)C(=O)N1CCC[C@H]1C(=O)N1CCC[C@H]1C(=O)N1CCC[C@H]1C(=O)N[C@@H](CO)C(N)=O` [Example 412], for which the Emax at hGIPR (setting [4]) is 87.5%; at hGIPR (setting [1]), 95.4%. Moreover, the EC50 on hGIPR (37° C.) was 0.0108 nM; on hGLP-1R (setting [2]), 0.16 nM; at hGLP-1R (setting [5]), 18.3 nM; at hGCGR (setting [3]), more than 9950 nM; at hGCGR (setting [6]), more than 9950 nM.

In the case of `CC[C@H](C)[C@H](NC(=O)[C@H](CC(C)C)NC(=O)[C@](C)(Cc1ccc(O)cc1)NC(=O)[C@@H](CCC(=O)O)NC(=O)[C@@H](NC(=O)[C@H](Cc1ccccc1)NC(=O)CNC(=O)C(C)(C)NC(=O)[C@H](CCC(N)=O)NC(=O)[C@H](C)NC(=O)[C@H](CCCCNC(=O)COCCOCCNC(=O)COCCOCCNC(=O)CC[C@H](NC(=O)CCCCCCCCCCCCC(=O)O)C(=O)O)NC(=O)[C@H](CCCN)NC(=O)[C@H](CC(=O)O)NC(=O)[C@H](CC(C)C)NC(=O)[C@](C)(CC(C)C)NC(=O)[C@@H](NC(=O)[C@H](CO)NC(=O)[C@H](Cc1ccncc1)NC(=O)[C@H](CC(=O)O)NC(=O)[C@H](CO)NC(=O)[C@@H](NC(=O)[C@](C)(Cc1ccccc1F)NC(=O)[C@@H](NC(=O)CNC(=O)[C@H](CCC(=O)O)NC(=O)C(C)(C)NC(=O)[C@@H](N)Cc1ccc(O)cc1)[C@@H](C)O)[C@@H](C)O)[C@@H](C)CC)[C@@H](C)CC)C(=O)N[C@@H](CCC(=O)O)C(=O)NCC(=O)NCC(=O)N[C@@H](CCCCNC(=O)COCCOCCNC(=O)COCCOCCNC(=O)CC[C@H](NC(=O)CCCCCCCCCCCCC(=O)O)C(=O)O)C(=O)N[C@@H](CO)C(=O)N[C@@H](CO)C(=O)NCC(=O)N[C@@H](C)C(=O)N1CCC[C@H]1C(=O)N1CCC[C@H]1C(=O)N1CCC[C@H]1C(=O)N[C@@H](CO)C(N)=O` [Example 103], the Emax on hGIPR (HEK293, 0.1% bovine casein and 1.0% human serum albumin, 37° C., percent of maximal response to GIP(1-42)NH2) worked out at 94.2%; on hGIPR (HEK293, percent of maximal response to GIP(1-42)NH2, 37° C., 0.1% bovine casein, arithmetic mean) it was 92.8%; on hGLP-1R (HEK293, 0.1% bovine casein and 1.0% human serum albumin, 37° C.) it was 96.9%. Also, the EC50 at hGIPR (incubated at 37° C.) is 0.0305 nM; on hGLP-1R (incubated at 37° C., 0.1% bovine casein (no human serum albumin), geometric mean), 2.1 nM; on hGCGR (0.1% bovine casein and 1.0% human serum albumin, 37° C., geometric mean) it was more than 9950 nM; at hGCGR (cAMP, incubated at 37° C., 0.1% bovine casein (no human serum albumin), geometric mean), more than 9950 nM.

Take `CC[C@H](C)[C@H](NC(=O)[C@H](CC(C)C)NC(=O)[C@](C)(Cc1ccc(O)cc1)NC(=O)[C@H](CCCCNC(=O)COCCOCCNC(=O)COCCOCCNC(=O)CC[C@H](NC(=O)CCCCCCCCCCCCC(=O)O)C(=O)O)NC(=O)[C@@H](NC(=O)[C@H](Cc1ccccc1)NC(=O)[C@H](Cc1ccncc1)NC(=O)C(C)(C)NC(=O)[C@H](CCC(N)=O)NC(=O)[C@H](C)NC(=O)[C@H](CCC(N)=O)NC(=O)[C@H](CCCN)NC(=O)[C@H](CC(=O)O)NC(=O)[C@H](CC(C)C)NC(=O)[C@](C)(CC(C)C)NC(=O)[C@@H](NC(=O)C(C)(C)NC(=O)[C@H](Cc1ccncc1)NC(=O)[C@H](CC(=O)O)NC(=O)[C@H](CO)NC(=O)[C@@H](NC(=O)[C@](C)(Cc1ccccc1F)NC(=O)[C@@H](NC(=O)CNC(=O)[C@H](CCC(=O)O)NC(=O)C(C)(C)NC(=O)[C@@H](N)Cc1ccc(O)cc1)[C@@H](C)O)[C@@H](C)O)[C@@H](C)CC)[C@@H](C)CC)C(=O)N[C@@H](CCCCNC(=O)COCCOCCNC(=O)COCCOCCNC(=O)CC[C@H](NC(=O)CCCCCCCCCCCCC(=O)O)C(=O)O)C(=O)NCC(=O)NCC(=O)N1CCC[C@H]1C(=O)N[C@@H](CO)C(=O)N[C@@H](CO)C(=O)NCC(=O)N[C@@H](C)C(=O)N1CCC[C@H]1C(=O)N1CCC[C@H]1C(=O)N1CCC[C@H]1C(=O)N[C@@H](CO)C(N)=O` [Example 444]: the Emax is 83.6% at hGIPR (setting [4]); 93.6% on hGIPR (setting [1]); 98.8% on hGLP-1R (HEK293, cAMP, 37° C., 0.1% bovine casein and 1.0% human serum albumin). Moreover, the EC50 at hGIPR (37° C.) was 0.0157 nM; at hGLP-1R (setting [2]) it was 0.289 nM; at hGLP-1R (setting [5]), 7.51 nM; on hGCGR (setting [3]), more than 9950 nM; on hGCGR (setting [6]) it was more than 9950 nM.
